{
  "source": "ChEMBL document CHEMBL5154877",
  "about": "“Novel Sphingosine Kinase 1 Inhibitor Suppresses Growth of Solid Tumor and Inhibits the Lung Metastasis of Triple-Negative Breast Cancer” (J Med Chem, 2022)",
  "molecular_target": "T1, Sphingosine kinase 2 (Homo sapiens, UniProt Q9NRA0)",
  "T1 sequence (Q9NRA0 whole entry)": "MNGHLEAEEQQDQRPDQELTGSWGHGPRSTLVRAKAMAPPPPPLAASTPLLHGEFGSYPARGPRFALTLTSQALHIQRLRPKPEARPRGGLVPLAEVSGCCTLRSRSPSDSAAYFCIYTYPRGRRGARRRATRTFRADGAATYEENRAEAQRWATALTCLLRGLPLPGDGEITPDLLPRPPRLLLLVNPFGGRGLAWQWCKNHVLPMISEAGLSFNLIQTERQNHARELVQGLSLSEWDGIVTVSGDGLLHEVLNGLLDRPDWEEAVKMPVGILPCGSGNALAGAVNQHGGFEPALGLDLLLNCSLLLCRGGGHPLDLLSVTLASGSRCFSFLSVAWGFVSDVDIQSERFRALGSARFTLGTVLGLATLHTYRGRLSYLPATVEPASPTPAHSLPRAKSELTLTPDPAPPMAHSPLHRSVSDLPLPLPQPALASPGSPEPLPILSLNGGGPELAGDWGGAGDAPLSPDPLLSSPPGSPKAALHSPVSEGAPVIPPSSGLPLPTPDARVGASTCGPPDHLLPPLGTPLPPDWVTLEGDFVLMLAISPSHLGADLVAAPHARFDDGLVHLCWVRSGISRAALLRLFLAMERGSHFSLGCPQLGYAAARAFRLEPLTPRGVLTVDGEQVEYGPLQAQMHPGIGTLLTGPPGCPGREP",
  "data": [
    {"smiles": "Cc1cc(CS(=O)(=O)c2ccccc2)cc(OCc2ccc(CN3CCCCC3CO)cc2)c1", "note": "(stereo unspecified)", "values": [
      {"measurement": "IC50", "result": "> 10", "unit": "µM"}
    ]}
  ]
}
